The results in this text go back to patent US8293481B2, “Biomarkers for chronic vascular dysfunction” (Mayo Foundation for Medical Education and Research, priority 2006, dated 2012).

Experiment [1] concerns aortic smooth muscle strips. The experiment can be described thus: Dose-response relationship to 8-Br-cGMP, relaxation of aortic smooth muscle strips from treated rats. The format is in vivo, rat. The settings on record: post-infarct animals treated with captopril, at both 2 and 4 weeks; P>0.05. An excerpt: After intubation, rats were ventilated continuously (room air) using a small animal ventilator (Model 683, Harvard Apparatus, Holliston, Mass.). A left lateral thoracotomy incision was made along the 5th intercostal space and after the pericardium was opened, the heart was exteriorized using a retention suture placed at the apex. The left anterior descending coronary artery (LAD) was ligated twice using 6-0 prolene suture (Ethicon, Cornelia, Ga.). After chest closure with running 3-0 vicryl suture (Ethicon), rats were put in a recovery chamber with a heating pad and warming light. The post-operative survival rate reached 80%. […] Rats were fed a standard diet of Teklad rodent feed (Harlan) ad libitum and kept on a 12:12 h light-dark cycle. Rats were sacrificed at designated time intervals of 2 weeks and 4 weeks after surgery. […] Determination of the dose-response relationship to cGMP: Aortic smooth muscle strips were isolated from rats in the uninfarcted control group without treatment and from both placebo as well as captopril treated group at 2 weeks and 4 weeks post-LAD ligation to determine the dose-response relationship to cGMP. […] After the force reached a steady state, the dose-response relationship to 8-Br-cGMP (Calbiochem, San Diego, Calif.) was determined.

Experiment [2] relates to panel of genes listed in b69 and b71 (Tmlhe, Af6, F2, Ywag, PPAR A, Resp18, Edn1, oxytocin and others). Description: Real-time PCR gene expression in aorta post MI, genes listed together as unchanged. The format is in vivo, rat. The settings on record: post MI groups versus uninfarcted control. The text has this:
After intubation, rats were ventilated continuously (room air) using a small animal ventilator (Model 683, Harvard Apparatus, Holliston, Mass.). A left lateral thoracotomy incision was made along the 5th intercostal space and after the pericardium was opened, the heart was exteriorized using a retention suture placed at the apex. The left anterior descending coronary artery (LAD) was ligated twice using 6-0 prolene suture (Ethicon, Cornelia, Ga.). After chest closure with running 3-0 vicryl suture (Ethicon), rats were put in a recovery chamber with a heating pad and warming light. The post-operative survival rate reached 80%. […] Confirmation of microarray result by quantitative real-time PCR: The remaining RNA from the aortic or portal vein RNA sample was quantitatively converted to single stranded cDNA using the High-Capacity cDNA Archive Kit (Applied Biosystems, Foster City, Calif.). […] The synthesized cDNA was then mixed with TAQMAN® Universal PCR Master Mix (2.5 μl of cDNA+47.5 μl of RNase-free H2O+50 μl of Master Mix) and loaded onto 384-Well micro fluid cards for quantitative real-time PCR (TAQMAN® Low Density Arrays, Applied Biosystems). […] For each cDNA sample, four replicates were analyzed for real-time PCR. […] The array was then run on the Applied Biosystems 7900HT Fast Real-time PCR System, and the data were analyzed using an Applied Biosystems RQ Manager Software (SDS 2.1). […]

Consider `C[C@H](CS)C(=O)N1CCC[C@H]1C(=O)O` [Captopril, 1-[(2S)-3-mercapto-2-methylpropionyl]-L-proline], for which, in experiment [1], the “sensitivity of cGMP-mediated relaxation versus uninfarcted control aorta” value is “not different”. Moreover, in experiment [2] (2 weeks post infarction), the “expression of 14 genes (Taok1, Raf1, Fmr1, Rock2, Baat, Gls2, Acot8, Tmlhe, Af6, F2, Ywag, PPAR A, Resp18, Edn1 and oxytocin)” value is “no significant change”. For the same compound, in experiment [2] (4 weeks post infarction), the “expression of 14 genes (MIR16, Agt, Cxcl12, Seh1h, Cox5, HGF, Tmlhe, Af6, F2, Ywag, PPAR A, Resp18, Edn1 and oxytocin)” value is reported as “no significant change”.
